Assay results published in patent publication US10597388B2, “Pyridazinone herbicides” (FMC CORPORATION, priority 2014, dated 2020).

Assays:
Experiment in all cases: Test D controlled growth environment herbicide test, pre- and postemergence
Assay type in all cases: in vivo
[1] = system: Russian thistle (Salsola kali)
In short: (§1)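 Species sown in silt loam and sprayed preemergence, or grown in peat-based medium to 2–18 cm (1- to 4-leaf stage) and sprayed postemergence, with compounds in non-phytotoxic solvent plus surfactant. Visual injury scored versus controls after 14–21 d in a controlled environment, 0 (no effect) to 100 (complete control).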

[2] = system: blackgrass (Alopecurus myosuroides)
In short: as §1

[3] = system: bromegrass, downy (downy bromegrass, Bromus tectorum)
In short: as §1

[4] = system: buckwheat, wild (wild buckwheat, Polygonum convolvulus)
In short: as §1

[5] = system: chamomile (scentless chamomile, Matricaria inodora)
In short: as §1

[6] = system: field violet (Viola arvensis)
In short: as §1

[7] = system: galium (catchweed bedstraw, Galium aparine)
In short: as §1

kochia (Kochia scoparia) = system: kochia (Kochia scoparia)
In short: as §1

[8] = system: lambsquarters (Chenopodium album)
In short: as §1

[9] = system: oat, wild (wild oat, Avena fatua)
In short: as §1

[10] = system: oilseed rape (Brassica napus)
In short: as §1

[11] = system: pigweed (Amaranthus retroflexus)
In short: as §1

[12] = system: speedwell (bird's-eye speedwell, Veronica persica)
In short: as §1

[13] = Postemergence, 31 g ai/ha, scale 0 to 100 (0 no effect, 100 complete control)
[14] = Postemergence, 125 g ai/ha, visual rating on scale 0 (no effect) to 100 (complete control), 14 to 21 d
[15] = Postemergence, 250 g ai/ha, scale 0 to 100 (0 no effect, 100 complete control)
[16] = Preemergence, 62 g ai/ha, scale 0 to 100 (0 no effect, 100 complete control)
[17] = Preemergence, 125 g ai/ha, scale 0 to 100 (0 no effect, 100 complete control)
[18] = Preemergence, 250 g ai/ha, scale 0 to 100 (0 no effect, 100 complete control)
[19] = postemergence, 62 g ai/ha, scale 0 to 100, 0 no effect, 100 complete control

For `Cc1ccc2ccc(C)c(-c3c(O)c(C)nn(C)c3=O)c2c1` [Compound 60], which “Russian Thistle plant response rating” value [1, 13] is on record?
The value was 80.

And the “Plant response rating, Russian Thistle” value [1, 14]?
Its value is 80.

What about the “Plant response rating, Russian Thistle” value [1, 15] of the same compound?
Its value is 85.

And the “Plant response rating (scale of 0 to 100), Russian Thistle” value ([1]; Preemergence, 31 g ai/ha)?
Its value is 15.

What about the “Plant response rating, Russian Thistle” value [1, 16] of the same compound?
Its value is 20.

And the “Plant response rating, Russian Thistle” value [1, 17]?
Its value is 35.

What about the “Plant response rating, Russian Thistle” value [1, 18] of the same compound?
Its value is 70.

And the “Plant response rating, Russian Thistle” value [1, 19]?
The value was 80.

What about the “Blackgrass plant response rating” value [2, 13] of the same compound?
Its value is 75.

What about the “Plant response rating, Blackgrass” value [2, 14] of the same compound?
The value was 85.

What about the “Plant response rating, Blackgrass” value [2, 15] of the same compound?
The value was 90.

And the “Plant response rating (scale of 0 to 100), Blackgrass” value ([2]; Preemergence, 31 g ai/ha)?
The value was 90.

What about the “Plant response rating, Blackgrass” value [2, 16] of the same compound?
Its value is 95.

And the “Plant response rating, Blackgrass” value [2, 17]?
The value was 100.

What about the “Plant response rating, Blackgrass” value [2, 18] of the same compound?
The value was 100.

And the “Plant response rating, Blackgrass” value [2, 19]?
The value was 80.

What about the “Bromegrass, Downy plant response rating” value [3, 13] of the same compound?
Its value is 30.

What about the “Plant response rating, Bromegrass, Downy” value [3, 14] of the same compound?
Its value is 65.

And the “Plant response rating, Bromegrass, Downy” value [3, 15]?
The value was 80.

And the “Plant response rating (scale of 0 to 100), Bromegrass, Downy” value ([3]; Preemergence, 31 g ai/ha)?
Its value is 60.

And the “Plant response rating, Bromegrass, Downy” value [3, 16]?
The value was 90.

What about the “Plant response rating, Bromegrass, Downy” value [3, 17] of the same compound?
Its value is 95.

What about the “Plant response rating, Bromegrass, Downy” value [3, 18] of the same compound?
Its value is 98.

And the “Plant response rating, Bromegrass, Downy” value [3, 19]?
Its value is 55.

And the “Buckwheat, Wild plant response rating” value [4, 13]?
The value was 90.

What about the “Plant response rating, Buckwheat, Wild” value [4, 14] of the same compound?
Its value is 100.

What about the “Plant response rating, Buckwheat, Wild” value [4, 15] of the same compound?
The value was 100.

And the “Plant response rating (scale of 0 to 100), Buckwheat, Wild” value ([4]; Preemergence, 31 g ai/ha)?
The value was 0.

What about the “Plant response rating, Buckwheat, Wild” value [4, 16] of the same compound?
Its value is 25.

What about the “Plant response rating, Buckwheat, Wild” value [4, 17] of the same compound?
Its value is 50.

What about the “Plant response rating, Buckwheat, Wild” value [4, 18] of the same compound?
The value was 60.

What about the “Plant response rating, Buckwheat, Wild” value [4, 19] of the same compound?
Its value is 95.

What about the “Chamomile plant response rating” value [5, 13] of the same compound?
Its value is 75.

And the “Plant response rating, Chamomile” value [5, 14]?
Its value is 100.

And the “Plant response rating, Chamomile” value [5, 15]?
Its value is 100.

What about the “Plant response rating (scale of 0 to 100), Chamomile” value ([5]; Preemergence, 31 g ai/ha) of the same compound?
Its value is 95.

And the “Plant response rating, Chamomile” value [5, 16]?
Its value is 100.

And the “Plant response rating, Chamomile” value [5, 17]?
The value was 100.

What about the “Plant response rating, Chamomile” value [5, 18] of the same compound?
The value was 100.

And the “Plant response rating, Chamomile” value [5, 19]?
Its value is 80.

And the “Field Violet plant response rating” value [6, 13]?
Its value is 80.

And the “Plant response rating, Field Violet” value [6, 14]?
The value was 100.

And the “Plant response rating, Field Violet” value [6, 15]?
The value was 85.

What about the “Plant response rating (scale of 0 to 100), Field Violet” value ([6]; Preemergence, 31 g ai/ha) of the same compound?
Its value is 95.

And the “Plant response rating, Field Violet” value [6, 16]?
The value was 100.

And the “Plant response rating, Field Violet” value [6, 17]?
The value was 100.

And the “Plant response rating, Field Violet” value [6, 18]?
The value was 100.

What about the “Plant response rating, Field Violet” value [6, 19] of the same compound?
The value was 95.

What about the “Galium plant response rating” value [7, 13] of the same compound?
Its value is 100.

What about the “Plant response rating, Galium” value [7, 14] of the same compound?
Its value is 100.

And the “Plant response rating, Galium” value [7, 15]?
The value was 100.

And the “Plant response rating (scale of 0 to 100), Galium” value ([7]; Preemergence, 31 g ai/ha)?
The value was 75.

And the “Plant response rating, Galium” value [7, 16]?
Its value is 85.

And the “Plant response rating, Galium” value [7, 17]?
The value was 95.

And the “Plant response rating, Galium” value [7, 18]?
The value was 100.

And the “Plant response rating, Galium” value [7, 19]?
The value was 100.

And the “Kochia plant response rating” value (kochia (Kochia scoparia); [13])?
The value was 70.

What about the “Plant response rating, Kochia” value (kochia (Kochia scoparia); [14]) of the same compound?
Its value is 90.

What about the “Plant response rating, Kochia” value (kochia (Kochia scoparia); [15]) of the same compound?
Its value is 95.

And the “Plant response rating (scale of 0 to 100), Kochia” value (kochia (Kochia scoparia); Preemergence, 31 g ai/ha)?
Its value is 15.

What about the “Plant response rating, Kochia” value (kochia (Kochia scoparia); [16]) of the same compound?
The value was 20.

And the “Plant response rating, Kochia” value (kochia (Kochia scoparia); [17])?
Its value is 60.

What about the “Plant response rating, Kochia” value (kochia (Kochia scoparia); [18]) of the same compound?
The value was 75.

And the “Plant response rating, Kochia” value (kochia (Kochia scoparia); [19])?
Its value is 85.

And the “Lambsquarters plant response rating” value [8, 13]?
Its value is 80.

And the “Plant response rating, Lambsquarters” value [8, 14]?
The value was 80.

What about the “Plant response rating, Lambsquarters” value [8, 15] of the same compound?
Its value is 80.

And the “Plant response rating (scale of 0 to 100), Lambsquarters” value ([8]; Preemergence, 31 g ai/ha)?
Its value is 100.

What about the “Plant response rating, Lambsquarters” value [8, 16] of the same compound?
Its value is 100.

What about the “Plant response rating, Lambsquarters” value [8, 17] of the same compound?
The value was 100.

And the “Plant response rating, Lambsquarters” value [8, 18]?
Its value is 100.

What about the “Plant response rating, Lambsquarters” value [8, 19] of the same compound?
Its value is 80.

What about the “Oat, Wild plant response rating” value [9, 13] of the same compound?
The value was 85.

And the “Plant response rating, Oat, Wild” value [9, 14]?
The value was 95.

And the “Plant response rating, Oat, Wild” value [9, 15]?
The value was 100.

What about the “Plant response rating (scale of 0 to 100), Oat, Wild” value ([9]; Preemergence, 31 g ai/ha) of the same compound?
The value was 90.

And the “Plant response rating, Oat, Wild” value [9, 16]?
The value was 95.

What about the “Plant response rating, Oat, Wild” value [9, 17] of the same compound?
The value was 100.

And the “Plant response rating, Oat, Wild” value [9, 18]?
Its value is 100.

And the “Plant response rating, Oat, Wild” value [9, 19]?
Its value is 90.

And the “Oilseed Rape plant response rating” value [10, 13]?
Its value is 65.

What about the “Plant response rating, Oilseed Rape” value [10, 14] of the same compound?
Its value is 75.

And the “Plant response rating, Oilseed Rape” value [10, 15]?
The value was 80.

And the “Plant response rating (scale of 0 to 100), Oilseed Rape” value ([10]; Preemergence, 31 g ai/ha)?
The value was 0.

And the “Plant response rating, Oilseed Rape” value [10, 16]?
The value was 15.

And the “Plant response rating, Oilseed Rape” value [10, 17]?
The value was 40.

And the “Plant response rating, Oilseed Rape” value [10, 18]?
Its value is 80.

And the “Plant response rating, Oilseed Rape” value [10, 19]?
Its value is 70.

What about the “Pigweed plant response rating” value [11, 13] of the same compound?
Its value is 75.

And the “Plant response rating, Pigweed” value [11, 14]?
The value was 100.

And the “Plant response rating, Pigweed” value [11, 15]?
The value was 100.

What about the “Plant response rating (scale of 0 to 100), Pigweed” value ([11]; Preemergence, 31 g ai/ha) of the same compound?
The value was 100.

What about the “Plant response rating, Pigweed” value [11, 16] of the same compound?
Its value is 100.

And the “Plant response rating, Pigweed” value [11, 17]?
Its value is 100.

What about the “Plant response rating, Pigweed” value [11, 18] of the same compound?
The value was 100.

What about the “Plant response rating, Pigweed” value [11, 19] of the same compound?
Its value is 95.

What about the “Speedwell plant response rating” value [12, 13] of the same compound?
The value was 85.

And the “Plant response rating, Speedwell” value [12, 14]?
The value was 90.

What about the “Plant response rating, Speedwell” value [12, 15] of the same compound?
Its value is 100.

And the “Plant response rating (scale of 0 to 100), Speedwell” value ([12]; Preemergence, 31 g ai/ha)?
Its value is 100.

What about the “Plant response rating, Speedwell” value [12, 16] of the same compound?
Its value is 100.

What about the “Plant response rating, Speedwell” value [12, 17] of the same compound?
The value was 100.

And the “Plant response rating, Speedwell” value [12, 18]?
Its value is 100.

What about the “Plant response rating, Speedwell” value [12, 19] of the same compound?
The value was 80.
